± gives the expanded uncertainty stated by the source.
Experiment: xn = mol fraction of the nth substance listed
Conditions: 101 kPa, Liquid; for viscosity: Capillary tube (Ostwald / Ubbelohde) method; for mass density: Vibrating tube method

CCCCCCCO [heptan-1-ol] + CC(C)CC(C)(C)C
Conditions | mass density [kg/m3] | viscosity [mPa·s]
298.15 K, x2 = 0 | 818.82 ± 2 | 6.004 ± 0.073
298.15 K, x2 = 0.1003 | 804.69 ± 2 | 4.442 ± 0.054
298.15 K, x2 = 0.2002 | 790.62 ± 2 | 3.258 ± 0.039
298.15 K, x2 = 0.3002 | 776.7 ± 2 | 2.408 ± 0.029
298.15 K, x2 = 0.3999 | 763.07 ± 2 | 1.793 ± 0.021
298.15 K, x2 = 0.5 | 749.79 ± 2 | 1.349 ± 0.016
298.15 K, x2 = 0.6 | 736.64 ± 2 | 1.059 ± 0.013
298.15 K, x2 = 0.6999 | 723.94 ± 2 | 0.827 ± 0.01
298.15 K, x2 = 0.7999 | 711.51 ± 2 | 0.672 ± 0.008
298.15 K, x2 = 0.8999 | 699.33 ± 2 | 0.557 ± 0.007
298.15 K, x2 = 0.92 | 697.03 ± 2 | –
298.15 K, x2 = 0.94 | 694.61 ± 2 | –
298.15 K, x2 = 0.9599 | 692.3 ± 2 | –
303.15 K, x2 = 0 | 815.3 ± 2 | 5.079 ± 0.062
303.15 K, x2 = 0.1003 | 801.1 ± 2 | 3.807 ± 0.046
303.15 K, x2 = 0.2002 | 786.96 ± 2 | 2.834 ± 0.034
303.15 K, x2 = 0.3002 | 772.96 ± 2 | 2.126 ± 0.025
303.15 K, x2 = 0.3999 | 759.26 ± 2 | 1.597 ± 0.019
303.15 K, x2 = 0.5 | 745.92 ± 2 | 1.224 ± 0.015
303.15 K, x2 = 0.6 | 732.7 ± 2 | 0.988 ± 0.012
303.15 K, x2 = 0.6999 | 719.94 ± 2 | 0.782 ± 0.009
303.15 K, x2 = 0.7999 | 707.45 ± 2 | 0.627 ± 0.007
303.15 K, x2 = 0.8999 | 695.21 ± 2 | 0.524 ± 0.006
303.15 K, x2 = 0.92 | 692.88 ± 2 | –
303.15 K, x2 = 0.94 | 690.48 ± 2 | –
303.15 K, x2 = 0.9599 | 688.17 ± 2 | –
308.15 K, x2 = 0 | 811.75 ± 2 | 4.374 ± 0.054
308.15 K, x2 = 0.1003 | 797.48 ± 2 | 3.283 ± 0.04
308.15 K, x2 = 0.2002 | 783.26 ± 2 | 2.518 ± 0.03
308.15 K, x2 = 0.3002 | 769.2 ± 2 | 1.881 ± 0.023
308.15 K, x2 = 0.3999 | 755.43 ± 2 | 1.437 ± 0.017
308.15 K, x2 = 0.5 | 742.02 ± 2 | 1.13 ± 0.013
308.15 K, x2 = 0.6 | 728.74 ± 2 | 0.913 ± 0.011
308.15 K, x2 = 0.6999 | 715.91 ± 2 | 0.714 ± 0.008
308.15 K, x2 = 0.7999 | 703.35 ± 2 | 0.587 ± 0.007
308.15 K, x2 = 0.8999 | 691.05 ± 2 | 0.496 ± 0.006
308.15 K, x2 = 0.92 | 688.71 ± 2 | –
308.15 K, x2 = 0.94 | 686.3 ± 2 | –
308.15 K, x2 = 0.9599 | 683.98 ± 2 | –
313.15 K, x2 = 0 | 808.17 ± 2 | 3.8 ± 0.047
313.15 K, x2 = 0.1003 | 793.83 ± 2 | 2.875 ± 0.035
313.15 K, x2 = 0.2002 | 779.54 ± 2 | 2.217 ± 0.027
313.15 K, x2 = 0.3002 | 765.4 ± 2 | 1.679 ± 0.02
313.15 K, x2 = 0.3999 | 751.57 ± 2 | 1.298 ± 0.016
313.15 K, x2 = 0.5 | 738.08 ± 2 | 1.018 ± 0.012
313.15 K, x2 = 0.6 | 724.74 ± 2 | 0.825 ± 0.01
313.15 K, x2 = 0.6999 | 711.84 ± 2 | 0.67 ± 0.008
313.15 K, x2 = 0.7999 | 699.22 ± 2 | 0.55 ± 0.007
313.15 K, x2 = 0.8999 | 686.85 ± 2 | 0.465 ± 0.006
313.15 K, x2 = 0.92 | 684.51 ± 2 | –
313.15 K, x2 = 0.94 | 682.09 ± 2 | –
313.15 K, x2 = 0.9599 | 679.77 ± 2 | –
318.15 K, x2 = 0 | 804.57 ± 2 | 3.224 ± 0.04
318.15 K, x2 = 0.1003 | 790.15 ± 2 | 2.503 ± 0.031
318.15 K, x2 = 0.2002 | 775.79 ± 2 | 1.979 ± 0.024
318.15 K, x2 = 0.3002 | 761.58 ± 2 | 1.501 ± 0.018
318.15 K, x2 = 0.3999 | 747.67 ± 2 | 1.176 ± 0.014
318.15 K, x2 = 0.5 | 734.12 ± 2 | 0.934 ± 0.011
318.15 K, x2 = 0.6 | 720.71 ± 2 | 0.758 ± 0.009
318.15 K, x2 = 0.6999 | 707.74 ± 2 | 0.623 ± 0.007
318.15 K, x2 = 0.7999 | 695.05 ± 2 | 0.517 ± 0.006
318.15 K, x2 = 0.8999 | 682.63 ± 2 | 0.439 ± 0.005
318.15 K, x2 = 0.92 | 680.27 ± 2 | –
318.15 K, x2 = 0.94 | 677.84 ± 2 | –
318.15 K, x2 = 0.9599 | 675.52 ± 2 | –
323.15 K, x2 = 0 | 800.93 ± 2 | 2.851 ± 0.035
323.15 K, x2 = 0.1003 | 786.43 ± 2 | 2.209 ± 0.027
323.15 K, x2 = 0.2002 | 772 ± 2 | 1.754 ± 0.021
323.15 K, x2 = 0.3002 | 757.71 ± 2 | 1.351 ± 0.016
323.15 K, x2 = 0.3999 | 743.74 ± 2 | 1.071 ± 0.013
323.15 K, x2 = 0.5 | 730.12 ± 2 | 0.859 ± 0.01
323.15 K, x2 = 0.6 | 716.64 ± 2 | 0.699 ± 0.008
323.15 K, x2 = 0.6999 | 703.6 ± 2 | 0.592 ± 0.007
323.15 K, x2 = 0.7999 | 690.85 ± 2 | 0.487 ± 0.006
323.15 K, x2 = 0.8999 | 678.37 ± 2 | 0.416 ± 0.005
323.15 K, x2 = 0.92 | 675.99 ± 2 | –
323.15 K, x2 = 0.94 | 673.57 ± 2 | –
323.15 K, x2 = 0.9599 | 671.24 ± 2 | –

From the NIST ThermoML archive (doi:10.1021/je501041r)
